Measured values taken from ChEMBL document CHEMBL3301361, “Experimental in vitro DMPK and physicochemical data on a set of publicly disclosed compounds”.
Values after ≈ are worked out from the molar mass of the structure shown.

Assays:
in vitro [1] = details: human, hepatocytes
physchem [2] = details: octan-1-ol/water, pH 7.4, LogD7.4
physchem [3] = details: pH 7.4 buffer
in vitro [4] = details: human, plasma, PPB
in vitro [5] = details: SD, HW or BN, rat, plasma
in vitro [6] = details: human
in vitro [7] = details: hepatocytes

## O=C(O)CC[C@@H](Cc1ccc(OCc2ccccc2)cc1)NC(=O)CCCCCCc1ccccc1
In vitro [1]
  hepatocyte CLint: 17.4 µL/min/1e6 cells

## Clc1ccc(Cn2c(-c3nn[nH]n3)cc3ccccc32)cc1Cl
In vitro [1]
  hepatocyte CLint: 12.9 µL/min/1e6 cells

## Nc1c(-c2ccccc2)nc(Cl)nc1-c1ccccc1
In vitro [1]
  hepatocyte CLint: 46.8 µL/min/1e6 cells

## O=C(O)C1CSC(c2ccccc2Cl)N1C(=O)c1ccc(Cl)cc1 (stereo not given)
In vitro [1]
  hepatocyte CLint: 15.5 µL/min/1e6 cells

## Cc1cc(C)nc(Nc2cccc(C(F)(F)F)c2)n1
In vitro [1]
  hepatocyte CLint: 36.3 µL/min/1e6 cells

## COCCOc1cc(-c2cccc3c(=O)cc(N4CCOCC4)oc23)ccc1NC(=O)CN1CCOCC1
In vitro [1]
  hepatocyte CLint: 43.6 µL/min/1e6 cells

## O=C(CN1CCOCC1)Nc1ccc(-c2cccc3c(=O)cc(N4CCOCC4)oc23)cc1OCCN1CCCC1
In vitro [1]
  hepatocyte CLint: 5.5 µL/min/1e6 cells

## COc1ncccc1-c1cccc2c(N)c3c(nc12)CN(C1CCC1)C3=O
In vitro [1]
  hepatocyte CLint: 4.88 µL/min/1e6 cells

## O=C1NC(=O)C(c2cnc3ccccn23)=C1c1cn2c3c(cccc13)CN(C(=O)N1CCOCC1)CC2
Physchem [2]
  logD: 1.79
Physchem [3]
  solubility thermodynamic: 0.6 µM (≈ 0.298 µg/mL)
In vitro [4]
  fraction unbound at 5 h: 0.142
In vitro [5]
  fraction unbound at 5 h: 0.114
In vitro [6]; liver microsomes
  microsomal CLint: 42 µL/min/mg
In vitro [7]
  hepatocyte CLint: 38 µL/min/1e6 cells

## COc1cc(N2CCN(C(=O)[C@@H](C)O)CC2)ccc1Nc1ncc(Cl)c(-c2cnc3ccccn23)n1
In vitro [1]
  hepatocyte CLint: 12.6 µL/min/1e6 cells

## O=C(O)C1(c2ccc(-c3ccc(Cl)c(Cl)c3)c(F)c2)CC1
In vitro [1]
  hepatocyte CLint: 38.9 µL/min/1e6 cells

## NC1(c2ccc(-c3ncc4cccn4c3-c3ccccc3)cc2)CCC1
In vitro [1]
  hepatocyte CLint: < 3 µL/min/1e6 cells

## NC1(c2ccc(-c3ncc4cnccc4c3-c3ccccc3)cc2)CCC1
In vitro [1]
  hepatocyte CLint: > 150 µL/min/1e6 cells

## NC1(c2ccc(-c3ncc4cccnc4c3-c3ccccc3)cc2)CCC1
In vitro [1]
  hepatocyte CLint: 19.5 µL/min/1e6 cells

## NC1(c2ccc(-c3c(-c4ccccc4)ccc4ccnn34)cc2)CCC1
In vitro [1]
  hepatocyte CLint: 10.2 µL/min/1e6 cells

## NC1(c2ccc(-c3c(-c4ccccc4)ccn4ncnc34)cc2)CCC1
In vitro [1]
  hepatocyte CLint: < 3 µL/min/1e6 cells

## Cn1cnc2c(-c3ccc(C4(N)CCC4)cc3)c(-c3ccccc3)ccc21
In vitro [1]
  hepatocyte CLint: 3.31 µL/min/1e6 cells

## Cc1ccc(-c2cccc(-c3nn[nH]n3)c2)cc1
In vitro [1]
  hepatocyte CLint: 52.5 µL/min/1e6 cells

## O=C1NC(=O)C(=CC=Cc2ccccc2)S1
In vitro [1]
  hepatocyte CLint: 10.5 µL/min/1e6 cells

## Cc1c(Cl)cccc1S(=O)(=O)N1CCC[C@H](C(=O)NC2CCCCC2)C1
In vitro [1]
  hepatocyte CLint: 18.6 µL/min/1e6 cells

## C[C@H]1COCCN1c1nc(N2CCOC[C@@H]2C)c2ccc(-c3ccc4nc[nH]c(=O)c4c3)nc2n1
In vitro [1]
  hepatocyte CLint: > 150 µL/min/1e6 cells

## CC(C)(C)NC(=O)NCCN1CCC(CO)(CNC(=O)c2cc(Cl)cc(Cl)c2)CC1
In vitro [1]
  hepatocyte CLint: 7.08 µL/min/1e6 cells

## Cc1ccc(-c2cc(C(F)(F)F)nn2-c2ccc(S(C)(=O)=O)cc2)cc1
In vitro [1]
  hepatocyte CLint: 17.4 µL/min/1e6 cells

## O=C(O)c1ccc(-n2nc(C(F)(F)F)cc2-c2ccc(C(F)(F)F)cc2)cc1
In vitro [1]
  hepatocyte CLint: 9.33 µL/min/1e6 cells

## NS(=O)(=O)c1ccc(-n2nc(C(F)(F)F)cc2-c2ccc(C(F)(F)F)cc2)cc1
In vitro [1]
  hepatocyte CLint: 18.2 µL/min/1e6 cells

## COc1ccc(/C=C2\NC(=O)NC2=O)cc1
In vitro [1]
  hepatocyte CLint: 39.8 µL/min/1e6 cells

## Clc1ccc(COc2ccc(Br)cc2CN2CCOCC2)cc1
In vitro [1]
  hepatocyte CLint: 55 µL/min/1e6 cells

## Cc1ccc(-c2cc(C(F)(F)F)nn2-c2ccc(C(=O)O)cc2)cc1
In vitro [1]
  hepatocyte CLint: 10.7 µL/min/1e6 cells

## Cc1ccc(-c2cc(C(F)(F)F)nn2-c2ccc([S+](C)[O-])cc2)cc1 (stereo not given)
In vitro [1]
  hepatocyte CLint: 14.8 µL/min/1e6 cells

## COc1ccccc1SC[C@@H](C)CN[C@@H]1COc2ccccc2SC1
In vitro [1]
  hepatocyte CLint: 51.3 µL/min/1e6 cells

## Cc1ccc2nc(C(=O)O)[nH]c2c1
In vitro [1]
  hepatocyte CLint: 9.77 µL/min/1e6 cells

## C[C@]12CC[C@H](O)CC1=CCC1C2CC[C@]2(C)C(n3cnc4ccccc43)=CCC12 (stereo not given in full)
In vitro [1]
  hepatocyte CLint: 34.7 µL/min/1e6 cells

## Nc1ccc2c(c1)Cc1cc(N)ccc1-2
In vitro [1]
  hepatocyte CLint: 61.7 µL/min/1e6 cells

## Cc1c[nH]c(-c2cnc(NCCNc3ccc(C#N)cn3)nc2-c2ccc(Cl)cc2Cl)n1 [LADUVIGLUSIB]
Physchem [2]
  logD: 3.86
Physchem [3]
  solubility thermodynamic: 0.4 µM (≈ 0.186 µg/mL)
In vitro [4]
  fraction unbound at 5 h: 0.0187
In vitro [5]
  fraction unbound at 5 h: 0.0447
In vitro [6]; microsomes
  microsomal CLint: 96 µL/min/mg
In vitro [7]
  hepatocyte CLint: 108 µL/min/1e6 cells

## CC(C)(Cc1cccc(CC(=O)NCc2cccc(-c3ccc(O)cc3)c2)c1)NC[C@H](O)c1ccc(O)c(NS(C)(=O)=O)c1 [PF-00610355]
Physchem [2]
  logD: 1.91
Physchem [3]
  solubility thermodynamic: 57.5 µM (≈ 35.5 µg/mL)
In vitro [4]
  fraction unbound at 5 h: 0.0053
In vitro [5]
  fraction unbound at 5 h: 0.0818
In vitro [6]; liver microsomes
  microsomal CLint: 99 µL/min/mg
In vitro [7]
  hepatocyte CLint: 37 µL/min/1e6 cells
